Data reported in US20040076659A1, “Additive for livestock feeds” (priority 1994, published 2004).

Legend:
[1] = tested on: rumen microbial cells enzyme source; experiment: Microbial protein adsorption to ground barley straw; design: species or system cows
Description: For the cellulose adhesion tests, the microbial enzyme source was resuspended and tested for adhesion on to a cellulose. substrate (barley straw, with 4% CP and ground through 0.5 mm sieve). […] 0.1 g of the straw in 5 ml of a bacterial cell-enzyme inoculum suspension, and then following the supernatant protein change with time. Readings were taken at 10, 20, 30, 60, and 120 min. At the end of the adsorption period, the assay contents were centrifuged at 2500 g max for 10 min to precipitate the solids, and the protein in the supernatant was precipitated out by 15% TCA solution and quantified by the Bicichoninic method (Smith et al., “Measurement of protein using bicinchonic acid,” Anal. Biochem. 150:76 (1984)). […]

dairy cows = experiment: Two levels of Tween 80, milk production and feed intake in cows under heat stress (Example 5); format: in vivo, Holstein; details: for Drop in milk production: week 11 (heat stress)
Excerpt: Seventy-five dairy cows of the Holstein breed were ranked according to lactation number, days in milk and production level and placed into three equal groups. Treatments were then randomly assigned to individual animals within the groups. There were 25 animals in each dietary treatment group. Cows were offered ad libitum access to a total mixed ration (TMR) based on grass silage, corn silage, grass hay and a commercial dairy concentrate. The treatments consisted of:
Treatment 1—Control diet (TMR).
Treatment 2—TMR containing 0.2% (w/w) Tween 80, and
Treatment 3—TMR containing 0.3% (w/w) Tween 80.
The experiment lasted 12 weeks. All cows were fed the control diet during the first week. This period served as a pretrial week. Cows in each treatment group were then fed their experimental diets for ten weeks. Milk production and feed intake were, monitored from the first week (pretrial) until the 12th week (one week after the experimental diets were withdrawn).
Ambient temperatures exceeded 40° C. during weeks 10 and 11 of the experiment resulting in considerable heat stress in the cows. Milk production and feed intake data are discussed in the light of the heat stress.

[2] = first calf heifers, 0.2% Tween 80, second week of heat stress

## polyoxyethylene sorbitan monoleate [Tween 80]
[1]; 0.05% additive
  Microbial protein adsorption extent: 1.12b μg/mg
  Microbial protein adsorption rate: 0.032b (0.01) μg/mg/min
[1]; 0.10% additive
  Microbial protein adsorption extent: 1.21c μg/mg
  Microbial protein adsorption rate: 0.034c (0.02) μg/mg/min
[1]; 0.25% additive
  Microbial protein adsorption extent: 1.18c μg/mg
  Microbial protein adsorption rate: 0.035c (0.01) μg/mg/min
[1]; 0.50% additive
  Microbial protein adsorption extent: 1.19c μg/mg
  Microbial protein adsorption rate: 0.034c (0.02) μg/mg/min
Dairy cows; 0.2% Tween 80, first 30 d
  Weight gain: 1 kg
Dairy cows; 0.2% Tween 80, first week of heat stress
  Depression in dry matter intake: 3.4%
Dairy cows; 0.2% Tween 80, last 60 days
  Weight gain: 9 kg
Dairy cows; 0.2% Tween 80, second week of heat stress
  Depression in dry matter intake: 14.4%
Dairy cows; 0.2% Tween 80
  Drop in milk production: 23.6%
Dairy cows; 0.3% Tween 80, first 30 d
  Weight gain: 2.5 kg
Dairy cows; 0.3% Tween 80, first week of heat stress
  Depression in dry matter intake: 6.0%
Dairy cows; 0.3% Tween 80, last 60 days
  Weight gain: 4.5 kg
Dairy cows; 0.3% Tween 80, second week of heat stress
  Depression in dry matter intake: 12.6%
Dairy cows; 0.3% Tween 80
  Drop in milk production: 22%
Dairy cows; Tween 80 treatments (0.2 and 0.3%), first week of heat stress (week 10)
  Fall in milk production: about 11%
Dairy cows; first calf heifers, 0.2% Tween 80
  More milk than control, on average: 2 kg/day
Dairy cows; [2]
  Increase in milk over control: 13.6%
  More milk than control: more than 3.6 kg/day
Dairy cows; mature cows, 0.2% Tween 80
  More milk than control, on average: 3.54 kg/day
Dairy cows; mature cows, 0.3% Tween 80
  More milk than control, on average: 3.98 kg/day
